Here are results for 32 compounds from ChEMBL document CHEMBL1136823, “Lead discovery of alpha,beta-unsaturated sulfones from a combinatorial library as inhibitors of inducible VCAM-1 expression” (Bioorg Med Chem Lett, 2003).

A short description of the first experiment: In vitro inhibition of inducible vascular cell adhesion molecule-1 (VCAM-1) expression in Human aortic endothelial cells (HAEC). It counts as functional, cell-based.
In the case of `C=CS(=O)(=O)c1ccccc1` [(ETHENYLSULFONYL)BENZENE], the half-maximal inhibitory concentration (IC50) stood at 2 µM.

With `CCCCCCC/C=C/C(=O)Nc1cccc(S(=O)(=O)CCO)c1`, the IC50 turned out to be 23 µM.

For `CCCCCC#CC(=O)OCCS(=O)(=O)c1cccc(N)c1`, the midpoint of inhibition, the IC50, lay at 6 µM.

`O=S1(=O)C=Cc2ccccc21` came in with an IC50 of 4 µM.

With `CC(=O)OCCS(=O)(=O)c1cccc(N)c1`, inhibition was half-maximal at 10 µM (IC50).

Turning to `C=CS(=O)(=O)c1cccc(NCCCCCCCC)c1`, the IC50 came out at 29 µM.

The compound `CCCCC/C=C/C(=O)OCCS(=O)(=O)c1ccccc1` showed an IC50 of 17 µM.

Compound `CC(=O)OCCS(=O)(=O)c1ccccc1` displayed a concentration for half-maximal inhibition (IC50) of 12 µM.

`C=CC(=O)OCCS(=O)(=O)c1ccccc1` yielded an IC50 of 7 µM. Against the preceding compound, the IC50 is about 1.7-fold lower.

Turning to `CCCCCC#CC(=O)Nc1cccc(S(=O)(=O)CCO)c1`, the half-inhibitory concentration (IC50) worked out at 20 µM.

`CC(=O)Nc1cccc(S(=O)(=O)CCOC(C)=O)c1`: the IC50 is 4 µM.

Turning to `O=S(=O)(CCCl)c1ccccc1`, the IC50 is 2 µM.

In the case of `CCCCCCC/C=C/C(=O)OCCS(=O)(=O)c1cccc(N)c1`, half-maximal inhibition (IC50) required 28 µM.

For `C=CS(C)(=O)=O`, the IC50 amounted to 14 µM. This IC50 is about 2-fold lower than that of the compound before.

Take `CCCCC/C=C/C(=O)OCCS(=O)(=O)c1cccc(N)c1`: the 50% inhibitory concentration (IC50) came to 17 µM.

Another experiment in a line: In vitro inhibition of inducible vascular cell adhesion molecule-1 (VCAM-1) expression in Human aortic endothelial cells (HAEC); NE denotes no effect. The format is functional, cell-based.
As for `CCOCCS(=O)(=O)c1ccccc1`, the half-maximal inhibitory concentration (IC50) entry is “Not Active”.

As to `C=CCCS(=O)(=O)c1ccccc1`, the 50% inhibitory concentration (IC50) entry was “Not Active”.

Take `CC(=O)CCCS(=O)(=O)c1ccccc1`: the IC50 result is given as “Not Active”.

For `CCS(=O)(=O)c1ccccc1`, the IC50 result is reported as “Not Active”.

For `O=S(=O)(c1ccccc1)c1ccsc1`, the IC50 entry is recorded as “Not Active”.

Consider `CCCCCCCCOCCS(=O)(=O)c1ccccc1`, for which the half-inhibitory concentration (IC50) entry is “Not Active”.

Regarding `CCCOCCS(=O)(=O)c1cccc(N)c1`, the IC50 result is on record as “Not Active”.

`C=C[S+]([O-])c1ccccc1` (configuration not stated): the IC50 entry is listed as “Not Active”.

Consider `CCCCCCCCNc1cccc(S(=O)(=O)CCOC(C)=O)c1`, for which the 50% inhibitory concentration (IC50) entry is “Not Active”.

Consider `CCOC(=O)CNCCS(=O)(=O)c1ccccc1`, for which the IC50 entry is given as “Not Active”.

Take `CCN(CC)CCS(=O)(=O)c1ccccc1`: the IC50 result was “Not Active”.

On to `O=C1c2ccccc2C(=O)N1CCS(=O)(=O)c1ccccc1`, for which the IC50 result is on record as “Not Active”.

On to `COC(=O)CS(=O)(=O)c1ccccc1`, for which the concentration for half-maximal inhibition (IC50) result was “Not Active”.

For the compound `Nc1cccc(S(=O)(=O)CCO)c1`, the IC50 result is “Not Active”.

Regarding `CCCNc1cccc(S(=O)(=O)CCOC(C)=O)c1`, the half-maximal inhibitory concentration (IC50) result is “Not Active”.

With `O=S(=O)(c1ccccc1)c1cccs1`, the 50% inhibitory concentration (IC50) result was “Not Active”.

Consider `O=S(=O)(CCNCc1ccccc1)c1ccccc1`, for which the IC50 entry is recorded as “Not Active”.

The IC50 is the midpoint of a concentration-inhibition curve. A higher IC50 goes with weaker potency in that assay.
